Experimental findings from US9126945B2, “N-(3-carbamoylphenly)-1H-pyrazole-5-carboxamide derivatives and the use thereof for controlling animal pests” (BAYER INTELLECTUAL PROPERTY GMBH, priority 2011, dated 2015) are described below.

This data set can be described thus: log P by HPLC, EEC Directive 79/831 Annex V.A8, method a). To be noted: for logP: cell prints no method mark; Ex. 40 value equals the log P given under method a). The format is physicochemical. How it is done:
(§1) ^a) Note regarding the determination of the log P values and mass detection The determination of the given log P values was carried out in accordance with EEC Directive 79/831 Annex V.A8 by HPLC (High Performance Liquid Chromatography) on a reversed-phase column (C18). Agilent 1100 LC system; 50*4.6 Zorbax Eclipse Plus C18 1.8 micron; mobile phase A: acetonitrile (0.1% formic acid); mobile phase B: water (0.09% formic acid); linear gradient from 10% acetonitrile to 95% acetonitrile in 4.25 min, then 95% acetonitrile for a further 1.25 min; oven temperature 55° C.; flow rate: 2.0 ml/min Mass detection is via an Agilend MSD system.
as §1, with “mass detection:” for “mass detection”, “2.0 ml/min.” for “2.0 ml/min”

Setting [1] is: reversed-phase C18 HPLC column; HPLC-MS method a), reversed-phase C18, acetonitrile/water with formic acid.

The structures appear in SMILES notation.

In the case of `CCN(C(=O)c1c(C(F)(F)F)c(C(F)(F)C(F)(F)F)nn1CC)c1ccc(Cl)c(C(=O)NC2(C#N)CC2)c1` [Example 43], the lipophilicity (logP) is recorded as 3.68.
Still for that read-out and setting: under `CCC(=O)N(C(=O)c1c(C(F)(F)F)c(C(F)(F)C(F)(F)F)nn1C)c1ccc(Cl)c(C(=O)NC2(C#N)CC2)c1` [Example 33] stands 3.91; under `CN(C(=O)c1cc(NC(=O)c2c(C(F)(F)F)c(C(F)(F)C(F)(F)F)nn2C)ccc1Cl)C1(C#N)CC1` [Example 62], 3.66.
For `CCCn1nc(C(F)(F)C(F)(F)F)c(C(F)(F)F)c1C(=O)Nc1ccc(Cl)c(C(=O)NC2(C#N)CC2)c1` [Example 35], the logP amounted to 3.87.
Take `CCCn1nc(C(F)(F)C(F)(F)F)c(C(F)(F)F)c1C(=O)N(CC)c1ccc(Cl)c(C(=O)NC2(C#N)CC2)c1` [Example 50, N-{4-Chloro-3-[(1-cyanocyclopropyl)carbamoyl]phenyl}-N-ethyl-3-(pentafluoroethyl)-1-propyl-4-(trifluoromethyl)-1H-pyrazole-5-carboxamide]: the chromatographic logP is 4.06 under setting [1] and 4.06 (reversed-phase HPLC column (C18); cell prints no method mark; Ex. 40 value equals the log P given under method a)).
Compound `C=CCn1nc(C(F)(F)C(F)(F)F)c(C(F)(F)F)c1C(=O)Nc1ccc(Cl)c(C(=O)NC2(C#N)CC2)c1` [Example 58] displayed a logP of 3.65.
Still for that read-out and setting: the figure for `C#CCN(C(=O)c1c(C(F)(F)F)c(C(F)(F)C(F)(F)F)nn1C)c1ccc(Cl)c(C(=O)NC2(C#N)CC2)c1` [Example 26] is 3.41; for `CC(C)OC(=O)N(C(=O)c1c(C(F)(F)F)c(C(F)(F)C(F)(F)F)nn1C)c1ccc(Cl)c(C(=O)NC2(C#N)CC2)c1` [Example 63] it is 4.19.
Same read-out and setting: the figure for `Cn1nc(C(F)(F)C(F)(F)F)c(C(F)(F)F)c1C(=O)Nc1cc(Cl)c(Br)c(C(=O)NC2(C#N)CC2)c1` [Example 16] is 3.73.
On the same count and under the same terms, the figure for `Cc1cc(NC(=O)c2c(C(F)(F)F)c(C(F)(F)C(F)(F)F)nn2C)cc(C(=O)NC2(C#N)CC2)c1Cl` [Example 24] is 3.51; for `C=C(C)CN(C(=O)c1c(C(F)(F)F)c(C(F)(F)C(F)(F)F)nn1C)c1ccc(Cl)c(C(=O)NC2(C#N)CC2)c1` [Example 55] it is 3.78; for `Cn1nc(C(F)(F)C(F)(F)F)c(C(F)(F)F)c1C(=O)N(C(=O)C(C)(C)C)c1ccc(Cl)c(C(=O)NC2(C#N)CC2)c1` [Example 23] it is 4.40.
For `CCN(C(=O)c1c(C(F)(F)F)c(C(F)(F)C(F)(F)F)nn1CC)c1ccc(Cl)c(C(=O)N(CC)C2(C#N)CC2)c1` [Example 52], the lipophilicity (logP) worked out at 4.26.
The same measure, in the same setting: the figure for `CC#CCN(C(=O)c1c(C(F)(F)F)c(C(F)(F)C(F)(F)F)nn1C)c1ccc(Cl)c(C(=O)NC2(C#N)CC2)c1` [Example 30] is 3.60; for `CCn1nc(C(F)(F)C(F)(F)F)c(C(F)(F)F)c1C(=O)Nc1ccc(F)c(C(=O)NC2(C#N)CC2)c1` [Example 37] it is 3.44; for `Cn1nc(C(F)(F)C(F)(F)F)c(S(C)(=O)=O)c1C(=O)Nc1ccc(Cl)c(C(=O)NC2(C#N)CC2)c1` [Example 49] it is 2.47.
The same measure, in the same setting: under `CCn1nc(C(F)(F)C(F)(F)F)c(C(F)(F)F)c1C(=O)Nc1ccc(Cl)c(C(=O)NC2(C#N)CC2)c1` [Example 34] stands 3.53; under `CCC(=O)N(C(=O)c1c(C(F)(F)F)c(C(F)(F)C(F)(F)F)nn1C)c1ccc(Cl)c(C(=O)N(C(=O)CC)C2(C#N)CC2)c1` [Example 60], 4.68.
Compound `N#CC1(NC(=O)c2cc([N+](=O)[O-])ccc2Cl)CC1` [2-chloro-N-(1-cyanocyclopropyl)-5-nitrobenzamide] displayed a chromatographic logP under setting [1] of 1.52.
Still for that read-out and setting: under `COC(=O)c1c(N)c(C(F)(F)C(F)(F)F)nn1C` [methyl 4-amino-1-methyl-3-(pentafluoroethyl)-1H-pyrazole-5-carboxylate] stands 2.52; under `COC(=O)c1c(SC)c(C(F)(F)C(F)(F)F)nn1C` [methyl 1-methyl-4-(methylsulphanyl)-3-(pentafluoroethyl)-1H-pyrazole-5-carboxylate], 3.51.
As for `CCCn1nc(C(F)(F)C(F)(F)F)c(C(F)(F)F)c1C(=O)N(C)c1ccc(F)c(C(=O)N(C)C2(C#N)CC2)c1` [Example 47], the logP is on record as 4.05.
The same measure, in the same setting: the figure for `CCn1nc(C(F)(F)C(F)(F)F)c(C(F)(F)F)c1C(=O)N(C)c1ccc(Cl)c(C(=O)NC2(C#N)CC2)c1` [Example 38] is 3.57; for `Cn1nc(C(F)(F)C(F)(F)F)c(C(F)(F)F)c1C(=O)N(Cc1ccc(Cl)cc1)c1ccc(Cl)c(C(=O)NC2(C#N)CC2)c1` [Example 28] it is 4.30.
`CCn1nc(C(F)(F)C(F)(F)F)c(C(F)(F)F)c1C(=O)N(C)c1ccc(F)c(C(=O)N(C)C2(C#N)CC2)c1` [Example 48] returned a log partition coefficient (logP) of 3.76.
Compound `CCOC(=O)c1c(Cl)c(C2(F)CC2)nn1C` [Ethyl 4-chloro-3-(1-fluorocyclopropyl)-1-methyl-1H-pyrazole-5-carboxylate] showed a chromatographic logP under setting [1] of 3.07.
Still for that read-out and setting: under `N#CC1(NC(=O)c2cc(N)ccc2Cl)CC1` [5-Amino-2-chloro-N-(1-cyanocyclopropyl)benzamide] stands 0.82.
In turn, `Cn1nc(C(F)(F)C(F)(F)F)c(C(F)(F)F)c1C(=O)N(Cc1ccccn1)c1ccc(Cl)c(C(=O)NC2(C#N)CC2)c1` [Example 32] came in with a logP of 3.53.
In the case of `COC(=O)c1c([N+](=O)[O-])c(C(F)(F)C(F)(F)F)nn1C` [methyl 1-methyl-4-nitro-3-(pentafluoroethyl)-1H-pyrazole-5-carboxylate], the chromatographic logP under setting [1] was found to be 3.18.
As for `Cn1nc(C(F)(F)C(F)(F)F)c(C(F)(F)F)c1C(=O)Nc1cc(Br)c(Cl)c(C(=O)NC2(C#N)CC2)c1` [Example 13], the log partition coefficient (logP) was determined as 3.67.
The same measure, in the same setting: under `N#CC1(NC(=O)c2cc(NC(=O)c3c(C(F)(F)F)c(C(F)(F)C(F)(F)F)nn3CC(F)(F)F)ccc2Cl)CC1` [Example 64] stands 3.60; under `Cn1nc(C(F)(F)C(F)(F)F)c([S+](C)[O-])c1C(=O)Nc1ccc(Cl)c(C(=O)NC2(C#N)CC2)c1` (centres unmarked) [Example 45], 2.91.
For the compound `CCOC(=O)N(C(=O)c1c(C(F)(F)F)c(C(F)(F)C(F)(F)F)nn1C)c1ccc(Cl)c(C(=O)N(C(=O)OCC)C2(C#N)CC2)c1` [Example 22], the logP is on record as 4.80.
`CCOC(=O)N(C(=O)c1c(C(F)(F)F)c(C(F)(F)C(F)(F)F)nn1C)c1ccc(Cl)c(C(=O)NC2(C#N)CC2)c1` [Example 20] showed a lipophilicity (logP) of 3.95.
The same measure, in the same setting: under `CCN(C(=O)c1cc(NC(=O)c2c(C(F)(F)F)c(C(F)(F)C(F)(F)F)nn2C)ccc1Cl)C1(C#N)CC1` [Example 61] stands 3.86; under `Cn1nc(C(F)(F)C(F)(F)F)c(C(F)(F)F)c1C(=O)Nc1ccc(F)c(C(=O)NC2(C#N)CC2)c1` [Example 27], 3.21.
On the same count and under the same terms, the figure for `CCCn1nc(C(F)(F)C(F)(F)F)c(C(F)(F)F)c1C(=O)N(CC)c1ccc(Cl)c(C(=O)N(CC)C2(C#N)CC2)c1` [Example 51] is 4.68; for `CC(C)C(=O)N(C(=O)c1c(C(F)(F)F)c(C(F)(F)C(F)(F)F)nn1C)c1ccc(Cl)c(C(=O)NC2(C#N)CC2)c1` [Example 29] it is 4.38.
Turning to `Cn1nc(C(F)(F)F)c(C(F)(F)F)c1C(=O)Nc1cc(Cl)c(Br)c(C(=O)NC2(C#N)CC2)c1` [Example 12], the logP came out at 3.27.
In turn, `CSc1c(C(F)(F)C(F)(F)F)nn(C)c1C(=O)Nc1ccc(Cl)c(C(=O)NC2(C#N)CC2)c1` [Example 42] had a logP of 3.43.
Under setting [1], `Cn1nc(C2(Cl)CC2)c(Cl)c1C(=O)O` [4-Chloro-3-(1-chlorocyclopropyl)-1-methyl-1H-pyrazole-5-carboxylic acid] displayed a chromatographic logP of 1.9.
On to `CCCn1nc(C(F)(F)C(F)(F)F)c(C(F)(F)F)c1C(=O)Nc1ccc(F)c(C(=O)NC2(C#N)CC2)c1` [Example 36], for which the lipophilicity (logP) came out at 3.74.
On the same count and under the same terms, the figure for `CCn1nc(C(F)(F)C(F)(F)F)c(C(F)(F)F)c1C(=O)N(C)c1ccc(Cl)c(C(=O)N(C)C2(C#N)CC2)c1` [Example 41] is 3.85; for `Cn1nc(C(F)(F)C(F)(F)F)c(C(F)(F)F)c1C(=O)Nc1cc(F)c(Br)c(C(=O)NC2(C#N)CC2)c1` [Example 59] it is 3.58.
Same read-out and setting: under `Cn1nc(C(F)(F)C(F)(F)F)c(C(F)(F)F)c1C(=O)N(CC#N)c1ccc(Cl)c(C(=O)NC2(C#N)CC2)c1` [Example 44] stands 3.25.
Same read-out and setting: the figure for `CCC(=O)N(C(=O)c1cc(NC(=O)c2c(C(F)(F)F)c(C(F)(F)C(F)(F)F)nn2C)ccc1Cl)C1(C#N)CC1` [Example 15] is 4.17.
Take `Cn1nc(C(F)(F)C(F)(F)F)c(C(F)(F)F)c1C(=O)N(Cc1cccnc1)c1ccc(Cl)c(C(=O)NC2(C#N)CC2)c1` [Example 54]: the log partition coefficient (logP) came to 2.85.
The same measure, in the same setting: the figure for `CCCn1nc(C(F)(F)C(F)(F)F)c(C(F)(F)F)c1C(=O)N(C)c1ccc(Cl)c(C(=O)N(C)C2(C#N)CC2)c1` [Example 46] is 4.26.
`Cn1nc(C(F)(F)C(F)(F)F)c(C(F)(F)F)c1C(=O)Nc1ccc(Cl)c(C(=O)O)c1` [2-Chloro-5-({[1-methyl-3-(pentafluoroethyl)-4-(trifluoromethyl)-1H-pyrazol-5-yl]carbonyl}amino)benzenecarboxylic acid] returned a chromatographic logP under setting [1] of 3.18.

As usually defined, the logP is the decadic logarithm of the partition coefficient of the neutral form, usually between octanol and water. The term chromatographic logP denotes a lipophilicity value derived from retention on a column. A higher chromatographic logP goes with a more lipophilic compound.
